Experimental data from patent US9173906B2, “Methods and compositions for tissue regeneration” (SMITH & NEPHEW, INC., priority 2002, dated 2015).

Assays:
Assay in all cases: Mitomycin C growth arrest of fibroblasts (weekly cell counting, colony inspection)
[1] = system: human telomerase immortalized fibroblast line (MDX12); details: MMC treatment for 5 h
Experimental: (§1) The rat fibroblast cell line (CRL 1213), the FGF1-transfected rat fibroblast cell line (1175/CRL 1213), the human telomerase immortalized fibroblast line (MDX12), and the primary human fibroblasts (EDX1) were each growth arrested using the following method. Fibroblasts were grown in DMEM+10% FCS, 25 mM Hepes, 1 mM pyruvate, 2 mM L-Gln, 100 U/ml penicillin, 100 μg/ml streptomycin in T75 flasks. […] The cells were then rinsed with PBS and detached with 0.05% trypsin/0.02% EDTA. The remaining cells were plated at densities of 100 to 5000 cells/cm^2 in T25-flasks respectively (10 flasks for each density). These cells were incubated at 37° C. with 2 media changes per week.
(§2) Efficiency of cell growth arrest was measured by weekly counting of cells (using a hemacytometer) cultured in the flasks plated at a density of 5000 cells/cm^2 and by inspection of appearing colonies in the flasks plated at a density of 100 cells/cm^2. Changes in cell morphology were also examined.

[2] = system: FGF1-transfected rat fibroblast cell line (1175/CRL 1213); type: cell-based
Experimental: as §1, §2

[3] = system: rat fibroblast cell line (CRL 1213); type: cell-based; details: MMC treatment for 5 h
Experimental: as §1, §2

[4] = system: primary human fibroblasts (EDX1); details: MMC treatment for 5 h
Experimental: as §1, §2

Compound: CO[C@@]12[C@H](COC(N)=O)C3=C(C(=O)C(C)=C(N)C3=O)N1C[C@@H]1N[C@@H]12 [mitomycin C]
- concentration sufficient to growth arrest [1]: 8 µg/mL
- efficacy of concentrations below 1 μg/ml [2]: not efficacious
- concentration at which cells were growth arrested ([2]; MMC treatment for 5 h): 1 µg/mL
- concentration optimal to growth arrest [3]: 2 µg/mL
- concentration sufficient to growth arrest [4]: 8 µg/mL
